Like-named read-outs stand apart in the source and are kept apart here.
Tests used:
PRC2 enzyme = PRC2 enzyme (Homo sapiens (Human), UniProt O75530); assay: PRC2 enzyme activity, TR-FRET method; format: biochemical
Description: The TR-FRET method was used to measure the PRC2 enzyme activity. First, the enzyme was mixed with compounds at different concentrations and incubated for 30 min at room temperature. The biotin-labeled histone H3 peptide substrate and the cofactor S-adenosylmethionine (SAM) were added to initiate the enzymatic reaction. After reaction was performed at room temperature for 4 hour, Acceptor and Donor were added and incubated for half an hour. The multifunctional microplate reader EnVision (Perkin Elmer Inc.) was used to detect the fluorescence signal. Data were analyzed using GraphPad Prism 5.0 software, and IC50 values were obtained.

Pfeiffer cells = assay: Pfeiffer cell growth inhibition in a long term (11 days), CellTiter-Glo; format: cell-based, Human; settings: Homo sapiens, 264 h, read-out: Experiment on Pfeiffer cell growth inhibition in a long term (11 days IC50)
Description: Pfeiffer cells in exponential growth phase were seeded in a 24-well plate with a cell density of 1*10E5 cells/mL. Cells were treated on the same day with the compounds at different concentrations. At day 4 and day 7 of compound treatment, fresh media and compounds were changed. After treated with the compounds for 11 days, cell viability was measured using CellTiter-Glo reagent (Promega Corporation). The data was analyzed using GraphPad Prism 5.0 software and GI50 values were obtained.

[1] = Liver microsomal stability (human); format: in vitro ADME
Description: (§1) 1. JANUS and temperature control device was turned on. After being initialized, the pipes were flushed until there was no air bubble in the pipes.
(§2) 2. Preparation of buffers used for the experiment
(§3) Preparation of Tris pH 7.4 buffer (0.1 M): 12.12 g of Tris was dissolved in 1000 mL of H2O, the resulting solution was adjusted to pH 7.4 with 2N HCl, aliquoted at 50 mL per tube, and stored at −20° C.
(§4) Preparation of H2O/0.1% BSA buffer: 200 μL of 25% BSA was added to 50 mL of H2O.
(§5) Preparation of VIVID stock solution: 1 mg of VIVID was dissolved in 1 mL of acetonitrile, aliquoted at 50 μL per tube, and stored at −20° C.
(§6) Preparation of MgCl2 solution (100 mM): 1.016 g of MgCl2 was dissolved in 50 mL Tris pH 7.4 buffer, and aliquoted at 1 mL per tube, and stored at −20° C.
(§7) Preparation of NADPH solution (10 mM): 355 mg of NADPH was dissolved in 42.6 mL of Tris pH 7.4 buffer, aliquoted at 1.8 mL per tube, and stored at −20° C.
(§8) Preparation of Blank control: 7.937 mL of Tris, 163 μL of RLM, 450 μL of MgCl2 solution, 450 μL of NADPH solution and 9 mL of methanol were mixed uniformly, aliquoted at 1 mL per tube, and stored at −20° C.
(§9) 3. Preparation of Compound Working Solution
(§10) Dilution step 1:10 μL of compound stock solution was added to 90 μL of DMSO=1 mM stock solution.
(§11) Dilution step 2: 2 μL of 1 mM stock solution was added to 1 mL of H2O/0.1%6 BSA buffer=[…] working solution.
(§12) Dilution step 3: 245 μL of the working solution was added to a 96-well compound plate and added with 5 μL of VIVID stock solution.
(§13) The 96-well compound plate was shaken on a shaker for 5 min.
(§14) 4. The STM in the JANUS in the computer was open to run the EXCEL file, and the JANUS program was operated and run by following the instructions in the EXCEL file.
(§15) 5. After the JANUS program was finished, acetonitrile/water 50:50 (V/V) was added to column 20 of the 384-well black plate, and blank control was added to column 21 of the 384-well black plate.
(§16) 6. the plate (420 nm-465 nm) was read on a microplate reader to determine the VIVID fluorescence intensity.
(§17) 7. After the plate was sealed, shaken and centrifuged, the sample plate was subjected to the LC/MS instrument for sample analysis.
(§18) A profile of the logarithmic value of the remaining rate of the drug in the incubation system versus the incubation time was plotted, and the slope k was obtained by linear regression. The intrinsic clearance rate in vivo (Clint, mL/min/g) value, the clearance rate in vivo (Cl, mL)/min), liver clearance (Clhep, mL/min) and metabolic bioavailability (% MF) were predicted according to the following equations: […]

[2] = Liver microsomal stability (rat); format: in vitro ADME; settings: rat liver microsomes
Description: as §1, §2, §3, §4, §5, §6, §7, §8, §9, §10, §11, §12, §13, §14, §15, §16, §17, §18

[3] = Liver microsomal stability (mouse); format: in vitro ADME; settings: mouse liver microsomes

Sequence of PRC2 enzyme (O75530 whole entry): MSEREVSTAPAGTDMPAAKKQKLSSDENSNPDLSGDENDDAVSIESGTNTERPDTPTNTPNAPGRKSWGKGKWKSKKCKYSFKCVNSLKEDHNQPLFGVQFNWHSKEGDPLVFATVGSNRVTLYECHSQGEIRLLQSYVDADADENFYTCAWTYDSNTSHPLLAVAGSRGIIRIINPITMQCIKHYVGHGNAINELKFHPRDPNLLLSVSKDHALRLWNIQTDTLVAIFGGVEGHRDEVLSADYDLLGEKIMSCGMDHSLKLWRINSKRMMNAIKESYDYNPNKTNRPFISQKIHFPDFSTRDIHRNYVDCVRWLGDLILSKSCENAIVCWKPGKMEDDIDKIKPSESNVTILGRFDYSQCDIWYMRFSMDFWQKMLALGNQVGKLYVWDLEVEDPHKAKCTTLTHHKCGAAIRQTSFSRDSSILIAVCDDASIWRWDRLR
Sequence of PRC2 enzyme (Q15910 whole entry partner): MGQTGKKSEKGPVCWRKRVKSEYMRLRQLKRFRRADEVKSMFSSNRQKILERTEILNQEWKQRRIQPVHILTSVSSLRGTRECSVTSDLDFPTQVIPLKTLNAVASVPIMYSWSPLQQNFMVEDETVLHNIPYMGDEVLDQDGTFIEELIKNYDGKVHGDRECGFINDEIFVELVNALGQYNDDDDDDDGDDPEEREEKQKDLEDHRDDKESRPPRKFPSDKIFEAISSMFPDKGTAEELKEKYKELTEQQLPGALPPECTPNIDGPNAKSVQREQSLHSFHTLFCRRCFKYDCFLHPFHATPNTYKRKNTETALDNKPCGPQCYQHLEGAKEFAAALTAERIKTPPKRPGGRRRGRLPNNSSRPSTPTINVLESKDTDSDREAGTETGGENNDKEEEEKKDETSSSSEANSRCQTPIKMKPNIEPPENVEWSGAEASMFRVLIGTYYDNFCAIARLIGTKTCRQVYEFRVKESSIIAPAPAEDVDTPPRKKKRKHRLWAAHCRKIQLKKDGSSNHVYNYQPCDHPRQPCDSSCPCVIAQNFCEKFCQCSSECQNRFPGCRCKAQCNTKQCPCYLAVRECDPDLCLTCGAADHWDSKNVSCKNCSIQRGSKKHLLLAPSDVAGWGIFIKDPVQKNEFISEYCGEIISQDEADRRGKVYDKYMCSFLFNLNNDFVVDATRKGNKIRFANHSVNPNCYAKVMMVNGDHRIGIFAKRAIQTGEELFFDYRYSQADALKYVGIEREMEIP
Sequence of PRC2 enzyme (Q15022 whole entry partner): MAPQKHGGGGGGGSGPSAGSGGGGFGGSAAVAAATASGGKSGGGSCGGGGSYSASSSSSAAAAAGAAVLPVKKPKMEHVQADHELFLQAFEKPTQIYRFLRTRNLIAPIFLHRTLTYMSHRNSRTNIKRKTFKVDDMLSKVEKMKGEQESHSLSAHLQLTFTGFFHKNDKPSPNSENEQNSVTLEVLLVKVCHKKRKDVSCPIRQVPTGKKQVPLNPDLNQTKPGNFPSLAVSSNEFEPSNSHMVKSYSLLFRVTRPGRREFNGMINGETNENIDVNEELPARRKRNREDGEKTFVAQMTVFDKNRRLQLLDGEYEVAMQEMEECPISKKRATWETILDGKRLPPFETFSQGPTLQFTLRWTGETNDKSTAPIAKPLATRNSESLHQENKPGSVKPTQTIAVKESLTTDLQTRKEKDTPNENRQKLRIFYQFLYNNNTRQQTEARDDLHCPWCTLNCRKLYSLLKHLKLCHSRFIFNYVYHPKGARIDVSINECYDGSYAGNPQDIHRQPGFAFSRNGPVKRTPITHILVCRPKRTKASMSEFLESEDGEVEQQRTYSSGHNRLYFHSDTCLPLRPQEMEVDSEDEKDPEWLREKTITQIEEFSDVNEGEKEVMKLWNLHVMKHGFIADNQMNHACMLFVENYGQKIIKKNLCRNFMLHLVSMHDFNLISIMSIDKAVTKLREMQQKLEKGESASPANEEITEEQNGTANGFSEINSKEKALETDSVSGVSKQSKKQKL

SMILES: Fc1ccc2c(c1CNc1ncc(C3=CCSCC3)c3nncn13)CCO2 [E-Y2]
- IC50 (PRC2 enzyme): 0.008 µM

SMILES: C1=C(c2cnc(NCc3ccco3)n3cnnc23)CCSC1 [E-Y5]
- IC50 (PRC2 enzyme): 0.611 µM

SMILES: CC(C)(C)OC(=O)N1CC=C(c2cnc(NCc3ccco3)n3cnnc23)CC1 [E-Y6]
- IC50 (Pfeiffer cells; 11 days): 0.083 µM

SMILES: CC(C)(C)OC(=O)NC1CC=C(c2cnc(NCc3ccco3)n3cnnc23)CC1 (centres unmarked) [E-Y9]
- IC50 (Pfeiffer cells; 11 days): 0.32 µM

SMILES: CS(=O)(=O)N1CCC(c2cnc(NCc3c(F)ccc4c3CCO4)n3cnnc23)CC1 [E-Y13-H]
- IC50 (PRC2 enzyme): 0.0107 µM

SMILES: Cc1ccc(S(=O)(=O)N2CC=C(c3cnc(NCc4c(F)ccc5c4CCO5)n4cnnc34)CC2)cc1 [E-Y14]
- IC50 (PRC2 enzyme): 0.101 µM

SMILES: O=C(c1ccccc1)N1CC=C(c2cnc(NCc3c(F)ccc4c3CCO4)n3cnnc23)CC1 [E-Y16]
- IC50 (PRC2 enzyme): 0.0177 µM
- IC50 (Pfeiffer cells; 11 days): 0.0048 µM

SMILES: CCNC(=O)N1CC=C(c2cnc(NCc3c(F)ccc4c3CCO4)n3cnnc23)CC1 [E-Y17]
- IC50 (Pfeiffer cells; 11 days): 0.0027 µM

SMILES: CC(C)(C)NC(=O)N1CC=C(c2cnc(NCc3c(F)ccc4c3CCO4)n3cnnc23)CC1 [E-Y18]
- IC50 (PRC2 enzyme): 0.021 µM
- IC50 (Pfeiffer cells; 11 days): 0.0027 µM

SMILES: CCNC(=S)N1CC=C(c2cnc(NCc3c(F)ccc4c3CCO4)n3cnnc23)CC1 [E-Y19]
- IC50 (PRC2 enzyme): 0.0093 µM
- IC50 (Pfeiffer cells): 0.003 µM

SMILES: CC(=O)N1CCC(c2cnc(NCc3ccco3)n3cnnc23)CC1 [E-Y20-H]
- IC50 (PRC2 enzyme): 0.0939 µM

SMILES: CC(=O)N1CC=C(c2cnc(NCc3ccco3)n3cnnc23)CC1 [E-Y20]
- IC50 (PRC2 enzyme): 0.166 µM
- IC50 (Pfeiffer cells; 11 days): 0.158 µM

SMILES: O=C(c1ccccc1)N1CC=C(c2cnc(NCc3ccco3)n3cnnc23)CC1 [E-Y21]
- IC50 (PRC2 enzyme): 0.351 µM
- IC50 (Pfeiffer cells; 11 days): 0.185 µM

SMILES: CS(=O)(=O)N1CC=C(c2cnc(NCc3ccco3)n3cnnc23)CC1 [E-Y22]
- IC50 (PRC2 enzyme): 0.334 µM

SMILES: Cc1ccc(S(=O)(=O)N2CC=C(c3cnc(NCc4ccco4)n4cnnc34)CC2)cc1 [E-Y23]
- IC50 (PRC2 enzyme): 0.35 µM
- IC50 (Pfeiffer cells; 11 days): 0.107 µM

SMILES: CC(C)(C)NC(=O)N1CC=C(c2cnc(NCc3ccco3)n3cnnc23)CC1 [E-Y25]
- IC50 (PRC2 enzyme): 0.373 µM

SMILES: Cc1ccc(NC(=O)N2CC=C(c3cnc(NCc4ccco4)n4cnnc34)CC2)cc1 [E-Y26]
- IC50 (PRC2 enzyme): 0.091 µM

SMILES: CC(=O)NC1CC=C(c2cnc(NCc3ccco3)n3cnnc23)CC1 (centres unmarked) [E-Y30]
- IC50 (PRC2 enzyme): 0.793 µM

SMILES: O=C(NC1CC=C(c2cnc(NCc3ccco3)n3cnnc23)CC1)c1ccccc1 (centres unmarked) [E-Y31]
- IC50 (PRC2 enzyme): 0.758 µM

SMILES: CS(=O)(=O)NC1CC=C(c2cnc(NCc3ccco3)n3cnnc23)CC1 (centres unmarked) [E-Y32]
- IC50 (PRC2 enzyme): 0.342 µM

SMILES: CC(F)(F)C(=O)N1CC=C(c2cnc(NCc3ccco3)n3cnnc23)CC1 [E-Y34]
- IC50 (PRC2 enzyme): 0.907 µM

SMILES: CN(C)CC(=O)N1CC=C(c2cnc(NCc3ccco3)n3cnnc23)CC1 [E-Y35]
- IC50 (PRC2 enzyme): 0.318 µM

SMILES: O=C(NC(=S)N1CC=C(c2cnc(NCc3c(F)ccc4c3CCO4)n3cnnc23)CC1)c1ccccc1 [E-Y39]
- IC50 (PRC2 enzyme): 0.0545 µM

SMILES: CC(C)(C)OC(=O)N1CC=C(c2cc(C#N)c(NCc3ccco3)n3cnnc23)CC1 [E-Y51]
- IC50 (PRC2 enzyme): 0.2 µM

SMILES: CN(C)CC(=O)N1CC=C(c2cnc(NCc3c(F)ccc4c3CCO4)n3cnnc23)CC1 [E-Y54-H]
- IC50 (PRC2 enzyme): 0.005 µM
- Clearance rate in vivo Clint In Vivo Extpl ([1]; human liver microsomes): 336 mL/min
- Half life T-half ([1]; human liver microsomes): 7.98 h
- Intrinsic clearance rate in vivo Clint In Vitro ([1]; human liver microsomes): 4.39 mL/min/gprot
- Liver clearance rate Clint Hep In Vivo Extpl ([1]; human liver microsomes): 274 mL/min
- Metabolic bioavailability MF % ([1]; human liver microsomes): 81.7%
- Clearance rate in vivo Clint In Vivo Extpl [2]: 4.26 mL/min
- Half life T-half [2]: 3.7 h
- Intrinsic clearance rate in vivo Clint In Vitro [2]: 9.47 mL/min/gprot
- Liver clearance rate Clint Hep In Vivo Extpl [2]: 3.51 mL/min
- Metabolic bioavailability MF % [2]: 82.4%
- Clearance rate in vivo Clint In Vivo Extpl [3]: 1.21 mL/min
- Half life T-half [3]: 1.95 h
- Intrinsic clearance rate in vivo Clint In Vitro [3]: 17.9 mL/min/gprot
- Liver clearance rate Clint Hep In Vivo Extpl [3]: 0.862 mL/min
- Metabolic bioavailability MF % [3]: 71.3%

SMILES: CN(C)CC(=O)N1CC=C(c2cnc(NCc3c(F)ccc4c3CCO4)n3cnnc23)CC1 [E-Y54]
- IC50 (PRC2 enzyme): 0.0041 µM
- Clearance rate in vivo Clint In Vivo Extpl ([1]; human liver microsomes): 188 mL/min
- Intrinsic clearance rate in vivo Clint In Vitro ([1]; human liver microsomes): 2.46 mL/min/gprot
- Liver clearance rate Clint Hep In Vivo Extpl ([1]; human liver microsomes): 167 mL/min
- half-life ([1]; human, liver microsomes, pH 7.4, human liver microsomes, read-out: Half life T-half): 14.2 h
- bioavailability ([1]; human, liver microsomes, pH 7.4, human liver microsomes, read-out: Metabolic bioavailability MF %): 88.8%
- Clearance rate in vivo Clint In Vivo Extpl [2]: 10.0 mL/min
- Half life T-half [2]: 1.57 h
- Intrinsic clearance rate in vivo Clint In Vitro [2]: 22.3 mL/min/gprot
- Liver clearance rate Clint Hep In Vivo Extpl [2]: 6.67 mL/min
- Metabolic bioavailability MF % [2]: 66.6%
- Clearance rate in vivo Clint In Vivo Extpl [3]: 3.86 mL/min
- Half life T-half [3]: 0.613 h
- Intrinsic clearance rate in vivo Clint In Vitro [3]: 57.1 mL/min/gprot
- Liver clearance rate Clint Hep In Vivo Extpl [3]: 1.69 mL/min
- Metabolic bioavailability MF % [3]: 43.7%

SMILES: CS(=O)(=O)N1CCC=C(c2cnc(NCc3c(F)ccc4c3CCO4)n3cnnc23)CC1 [SL-E14]
- IC50 (PRC2 enzyme): 0.0017 µM

SMILES: CN1CCC(c2cnc(NCc3c(F)ccc4c3CCO4)n3cnnc23)CC1 [SL-E25]
- IC50 (PRC2 enzyme): 0.015 µM

SMILES: CN1CCC(c2cnc(NCc3c(F)ccc4c3CCO4)n3cnnc23)CC1=O (centres unmarked) [SL-E26]
- IC50 (PRC2 enzyme): 0.0084 µM

SMILES: Fc1ccc2c(c1CNc1ncc(C3CCCOCC3)c3nncn13)CCO2 (centres unmarked) [SL-ZYE-08]
- IC50 (PRC2 enzyme): 0.0119 µM

SMILES: C1=C(c2cnc(NCc3cccc4c3CCO4)n3cnnc23)CCOC1 [SL-ZYE-11]
- IC50 (PRC2 enzyme): 0.0179 µM

SMILES: c1cc(CNc2ncc(C3CCOCC3)c3nncn23)c2c(c1)OCC2 [SL-ZYE-14]
- IC50 (PRC2 enzyme): 0.084 µM

SMILES: C1=C(c2cnc(NCc3cccc4occc34)n3cnnc23)CCOC1 [SL-ZYE-17]
- IC50 (PRC2 enzyme): 0.056 µM

SMILES: CC(C)(C)OC(=O)N1CC=C(c2cnc(NCc3cccc4occc34)n3cnnc23)CC1 [SL-ZYE-18]
- IC50 (PRC2 enzyme): 0.115 µM

SMILES: CC1C=C(c2cnc(NCc3c(F)ccc4c3CCO4)n3cnnc23)CC(C)N1C(=O)OC(C)(C)C (centres unmarked) [SL-ZYE-23]
- IC50 (PRC2 enzyme): 0.0476 µM

SMILES: O=S1(=O)CCC(c2cnc(NCc3c(F)ccc4c3CCO4)n3cnnc23)CC1 [SL-ZYE-34]
- IC50 (PRC2 enzyme): 0.0032 µM

SMILES: CC1(C)C=C(c2cnc(NCc3c(F)ccc4c3CCO4)n3cnnc23)CCO1 [SL-ZYE-120]
- IC50 (PRC2 enzyme): 0.0036 µM

SMILES: CC1(C)CC(c2cnc(NCc3c(F)ccc4c3CCO4)n3cnnc23)CCO1 (centres unmarked) [SL-ZYE-121]
- IC50 (PRC2 enzyme): 0.0042 µM

SMILES: COC(=O)N1CC=C(c2cnc(NCc3c(F)ccc4c3CCO4)n3cnnc23)CC1 [SL-ZYE-147]
- IC50 (Pfeiffer cells; 11 days): 0.001 to 0.003 µM

SMILES: COC(=O)N1CCC=C(c2cnc(NCc3c(F)ccc4c3CCO4)n3cnnc23)CC1 [SL-ZYE-183]
- IC50 (PRC2 enzyme): 0.0022 µM

SMILES: CC1(C)C=C(c2cnc(NCc3c(F)ccc4c3CCO4)n3cnnc23)CC(C)(C)O1 [SL-ZYE-195]
- IC50 (PRC2 enzyme): 0.0223 µM
